Experiment [1] deals with cellular target. The note with it: cited from earlier work; for IC50: as described in Sidrauski et al.
The subject of experiment [2] is iPSC-derived nociceptor-like cells. Kind of experiment: Multi-electrode array: stimulation of nociceptor-like cells by specific ligands. The experiment is classed as cell-based, human. How it is done: Functional analysis of nociceptors derived from iPSCs according to the procedure described in Example 1 was performed. Multi-electrode arrays were used for the electrophysiology characterization experiments.

Experiment [3] shares this test system. Kind of experiment: Multi-electrode array: sensitization of nociceptor-like cells with temperature stimulation. The class given is cell-based, human. Conditions: then 40° C., day 28. The text has this:
FIGS. 12A and 12B illustrate the results of an electrophysiology experiment (multi-electrode array using Maestro Pro, Axion Biosystems) showing that iPSC-derived nociceptor-like cells were sensitized in response to treatment with oxaliplatin and prostaglandin E2 (PGE2). Oxaliplatin is a widely used chemotherapeutic drug that can damage sensory neurons of the peripheral nervous system and lead to peripheral neuropathy. PGE2 is used to model inflammatory pain. At day 28 of the procedure described in Example 1, the iPSC-derived nociceptor-like cells were recorded at 37° C. for 10 minutes for baseline recording, and then pre-treated with 0.1% DMSO, 50 μM Oxaliplatin or 1 μM PGE2 for 15 minutes at 37° C. The temperature was then increased to 40° C. to stimulate the cells, and recording was performed for another 10 minutes.

The target of experiment [4] is T1, purinergic receptor P2RX3 (Homo sapiens, UniProt P56373).
T1 construct: iPSC-derived nociceptor-like cells were stimulated by application of 10 μM α,β-me-ATP, which is a known agonist for P2RX3 purinergic receptors; endogenous in cells; host or cells: iPSC-derived nociceptor-like cells, day 28 of differentiation
T1 sequence (P56373 1-397): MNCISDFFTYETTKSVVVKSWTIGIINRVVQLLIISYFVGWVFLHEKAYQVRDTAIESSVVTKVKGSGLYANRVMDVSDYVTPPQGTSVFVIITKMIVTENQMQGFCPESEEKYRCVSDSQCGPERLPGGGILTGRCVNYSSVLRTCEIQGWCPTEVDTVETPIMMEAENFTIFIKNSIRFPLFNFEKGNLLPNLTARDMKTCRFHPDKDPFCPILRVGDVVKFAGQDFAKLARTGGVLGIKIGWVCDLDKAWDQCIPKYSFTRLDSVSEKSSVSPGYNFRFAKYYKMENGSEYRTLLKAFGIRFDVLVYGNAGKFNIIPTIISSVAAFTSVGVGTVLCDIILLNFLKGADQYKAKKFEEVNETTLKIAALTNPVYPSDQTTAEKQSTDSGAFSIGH
Nature of the experiment: Multi-electrode array: α,β-me-ATP stimulation and P2RX3 antagonist block in nociceptor-like cells. The note with it: 10 μM, day 28, multi-electrode array. The experiment is classed as cell-based. How it is done:
At day 28 of the procedure described in Example 1, the iPSC-derived nociceptor-like cells were pre-treated with 0.1% DMSO or 10 μM of each known antagonist of purinergic receptor P2RX3 for 30 minutes at 37° C. The cells were then stimulated by 10 μM α,β-me-ATP, and recordings were performed using multi-electrode.

SMILES strings stand for the structures. Entries after “also recorded” stand apart in the source; their conditions may differ.

Take `O=C(COc1ccc(Cl)cc1)NC1CCC(NC(=O)COc2ccc(Cl)cc2)CC1` (stereo not drawn) [cis-ISRIB]: the concentration for half-maximal inhibition (IC50) (as a rule, the midpoint of a concentration-inhibition curve) in experiment [1] is 600 nM. Consider `C=CCN=C=S` [mustard oil, allyl isothiocyanate], for which, in experiment [2] (100 μM), the “response: frequency of firing action potentials” value (from here on “response: frequency”) is “increasing the frequency of firing action potentials; also recorded: stimulated”. For the compound `O=C1[O][Pt]2([NH][C@@H]3CCCC[C@H]3[NH]2)[O]C1=O` [oxaliplatin], the “sensitization of nociceptor-like cells” value in experiment [3] (50 μM pre-treatment 15 minutes at 37° C.) was “sensitized”. Take `CCCCC[C@H](O)/C=C/[C@H]1[C@H](O)CC(=O)[C@@H]1C/C=C\CCCC(=O)O` [PGE2, prostaglandin E2]: the “sensitization of nociceptor-like cells” value in experiment [3] (1 μM pre-treatment 15 minutes at 37° C.) was “sensitized”. With `COc1cc(CNC(=O)CCCC/C=C/C(C)C)ccc1O` [capsaicin], the “response: frequency” value in experiment [2] (5 μM) is on record as “increasing the frequency of firing action potentials; also recorded: stimulated”.

`O=C(COc1ccc(Cl)cc1)N[C@H]1CC[C@H](NC(=O)COc2ccc(Cl)cc2)CC1` [trans-ISRIB, N,N′-((1r,4r)-cyclohexane-1,4-diyl)bis(2-(4-chlorophenoxy)acetamide)]: the half-maximal inhibitory concentration (IC50) in experiment [1] is 5 nM. In experiment [1] (trans-ISRIB vs cis-ISRIB), the “fold more potent than cis-ISRIB” value was 100 fold. For the compound `Nc1ncnc2c1ncn2[C@@H]1O[C@H](COP(=O)(O)CP(=O)(O)OP(=O)(O)O)[C@@H](O)[C@H]1O` [α,β-me-ATP], the “stimulation of nociceptor-like cells” value in experiment [4] is reported as “stimulated”. Further, in experiment [2] (10 μM), the “response: frequency” value is recorded as “increasing the frequency of firing action potentials; also recorded: stimulated”.

The values above are taken from patent US20220228111A1, “NOCICEPTOR DIFFERENTIATION FROM HUMAN PLURIPOTENT STEM CELLS” (priority 2019, published 2022).
